Test results reported in the supplement of paper PMC9663587.

Columns and labels:
Experiment in all cases: area over the GR curve, 72 h; higher = more effect;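 further: Dye Drop or Deep Dye Drop imaging of viable cells in 384-well plates (Hoechst nuclei, LIVE/DEAD dye), nine half-log doses, GR normalized to DMSO controls and time-zero plates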
[1] = system: UACC812
[2] = system: HCC1395
[3] = system: PDXHCI002
[4] = system: ZR7530
[5] = system: MCF7
[6] = system: SUM229PE
[7] = system: HCC1569
[8] = system: EFM19
[9] = system: AU565
[10] = system: PDX1258
[11] = system: MDAMB468
[12] = system: SUM52PE
[13] = system: HTERT_HME1

Compound	area over the GR curve [1]	area over the GR curve [2]	area over the GR curve [3]	area over the GR curve [4]	area over the GR curve [5]	area over the GR curve [6]	area over the GR curve [7]	area over the GR curve [8]	area over the GR curve [9]	area over the GR curve [10]	area over the GR curve [11]	area over the GR curve [12]	area over the GR curve [13]
CCC(=O)Nc1ccc(C(=O)Nc2ccc(Nc3ncc4c(n3)N(C)c3ccc(C)cc3C(=O)N4C)cc2)cc1 [FMF-03-145-1]	1.04 GR	0.52 GR	0.915 GR	0.918 GR	0.957 GR	1.06 GR	1 GR	0.341 GR	0.501 GR	1.12 GR	0.572 GR	0.91 GR	0.44 GR
COc1cc(N2CCN(C)CC2)ccc1Nc1ncc2c(n1)N(C)c1ccccc1C(=O)N2CC(F)(F)F [FMF-03-146-1]	0.0144 GR	0.163 GR	-0.0147 GR	0.0601 GR	0.0454 GR	0.0104 GR	-0.0612 GR	0.0185 GR	0.0771 GR	-0.0674 GR	0.0476 GR	-0.0411 GR	0.049 GR
CN1CC[C@H](c2c(O)cc(O)c3c(=O)cc(-c4ccccc4Cl)oc23)[C@H](O)C1 [Flavopiridol] (max 1 µM)	0.419 GR	0.339 GR	0.278 GR	0.236 GR	0.36 GR	0.3 GR	0.232 GR	0.191 GR	0.368 GR	0.341 GR	0.269 GR	0.215 GR	0.319 GR
CC(C)n1nc(-c2ccc3oc(N)nc3c2)c2c(N)ncnc21 [INK128/MLN0128] (max 3.162 µM)	1.22 GR	0.557 GR	0.122 GR	0.533 GR	0.726 GR	0.379 GR	0.508 GR	0.682 GR	0.791 GR	0.449 GR	0.502 GR	0.572 GR	0.401 GR
CC(C)NC[C@@H](C(=O)N1CCN(c2ncnc3c2[C@H](C)C[C@H]3O)CC1)c1ccc(Cl)cc1 [Ipatasertib/GDC0068] (max 10 µM)	0.173 GR	0.278 GR	-0.114 GR	0.124 GR	0.26 GR	0.1 GR	0.227 GR	0.185 GR	0.147 GR	0.15 GR	0.223 GR	0.0168 GR	0.0249 GR
CN(C)C(=O)c1cc2cnc(Nc3ccc(N4CCNCC4)cn3)nc2n1C1CCCC1 [LEE011/Ribociclib] (max 10 µM)	0.642 GR	0.323 GR	0.123 GR	0.398 GR	0.442 GR	0.221 GR	-0.108 GR	0.315 GR	0.403 GR	-0.124 GR	0.0162 GR	0.215 GR	0.365 GR
CCNC(=O)c1noc(-c2cc(C(C)C)c(O)cc2O)c1-c1ccc(CN2CCOCC2)cc1 [Luminespib/NVP-AUY922] (max 1 µM)	0.881 GR	0.617 GR	0.7 GR	0.536 GR	0.513 GR	0.729 GR	0.513 GR	0.35 GR	0.689 GR	0.608 GR	0.648 GR	0.6 GR	0.633 GR
CCOc1cc2ncc(C#N)c(Nc3ccc(OCc4ccccn4)c(Cl)c3)c2cc1NC(=O)/C=C/CN(C)C [Neratinib/HKI272] (max 3.162 µM)	1.03 GR	0.142 GR	0.367 GR	1.08 GR	0.142 GR	0.24 GR	0.397 GR	0.0236 GR	1.15 GR	0.154 GR	0.386 GR	0.0354 GR	0.265 GR
O=C(c1cc(Cc2n[nH]c(=O)c3ccccc23)ccc1F)N1CCN(C(=O)C2CC2)CC1 [Olaparib/AZD2281] (max 10 µM)	-0.0835 GR	0.253 GR	0.167 GR	0.0601 GR	0.0554 GR	0.0365 GR	0.053 GR	0.0595 GR	0.0653 GR	0.02 GR	0.0573 GR	-0.0471 GR	0.0258 GR
CC(=O)O[C@H]1C(=O)[C@@]2(C)[C@H]([C@H](OC(=O)c3ccccc3)[C@]3(O)C[C@H](OC(=O)[C@H](O)[C@@H](NC(=O)c4ccccc4)c4ccccc4)C(C)=C1C3(C)C)[C@]1(OC(C)=O)CO[C@@H]1C[C@@H]2O [Paclitaxel] (max 1 µM)	1.44 GR	0.839 GR	0.921 GR	0.868 GR	0.772 GR	0.91 GR	0.663 GR	0.874 GR	0.994 GR	0.68 GR	1.01 GR	0.898 GR	0.676 GR
CS(=O)(=O)N1CCN(Cc2cc3nc(-c4cccc5[nH]ncc45)nc(N4CCOCC4)c3s2)CC1 [Pictilisib/GDC0941] (max 10 µM)	0.6 GR	0.226 GR	0.212 GR	0.465 GR	0.506 GR	0.137 GR	0.346 GR	0.439 GR	0.646 GR	0.23 GR	0.205 GR	0.364 GR	0.134 GR
O=C1NC(=NCc2cccs2)SC1=Cc1ccc2ncccc2c1 [R0-3306] (max 10 µM)	0.142 GR	0.418 GR	0.0778 GR	0.113 GR	0.0991 GR	0.0926 GR	0.022 GR	0.132 GR	0.406 GR	0.0971 GR	0.185 GR	0.0606 GR	0.0677 GR
CNCc1ccc(-c2[nH]c3cc(F)cc4c3c2CCNC4=O)cc1 [Rucaparib] (max 10 µM)	0.0535 GR	0.385 GR	0.0896 GR	0.25 GR	0.0771 GR	0.047 GR	-0.0162 GR	0.0332 GR	0.0692 GR	0.204 GR	0.101 GR	0.0094 GR	0.121 GR
CC1(N)CCN(c2cnc(-c3cccc(Cl)c3Cl)c(N)n2)CC1 [SHP099] (max 10 µM)	0.151 GR	0.0738 GR	0.0735 GR	-0.0067 GR	0.0308 GR	-0.0033 GR	-0.114 GR	-0.0009 GR	0.0263 GR	-0.0325 GR	0.134 GR	-0.0423 GR	0.0778 GR
CN1CCN(CCOc2cc(OC3CCOCC3)c3c(Nc4c(Cl)ccc5c4OCO5)ncnc3c2)CC1 [Saracatinib/AZD0530] (max 10 µM)	0.875 GR	0.111 GR	0.512 GR	0.399 GR	0.322 GR	0.131 GR	0.188 GR	0.149 GR	0.119 GR	0.275 GR	0.139 GR	0.0817 GR	-0.0453 GR
Cc1cc(C(C)Nc2ccccc2)c2nc(N3CCOCC3)cc(=O)n2c1 (stereo not drawn) [TGX221] (max 10 µM)	0.523 GR	0.0832 GR	-0.0291 GR	-0.0239 GR	-0.0083 GR	-0.0167 GR	0.0644 GR	0.0431 GR	0.103 GR	-0.0475 GR	0.103 GR	0.0531 GR	-0.0608 GR
CN(C)C/C=C/C(=O)Nc1ccc(C(=O)Nc2cccc(Nc3ncc(Cl)c(-c4c[nH]c5ccccc45)n3)c2)cc1 [THZ1] (max 1 µM)	0.0711 GR	0.609 GR	0.527 GR	0.561 GR	0.514 GR	0.504 GR	0.363 GR	0.159 GR	0.607 GR	0.633 GR	0.48 GR	0.527 GR	0.76 GR
CN(C)C/C=C/C(=O)Nc1ccc(C(=O)N2CCC[C@@H](Nc3ncc(Cl)c(-c4c[nH]c5ccccc45)n3)C2)cc1 [THZ531] (max 1 µM)	0.0619 GR	0.37 GR	0.352 GR	0.472 GR	0.344 GR	0.132 GR	0.312 GR	0.167 GR	0.42 GR	0.457 GR	0.404 GR	0.222 GR	0.182 GR
CN(C)C/C=C/C(=O)Nc1ccc(C(=O)Nc2cccc(Nc3cc(-c4c[nH]c5ccccc45)ncn3)c2)cc1 [THZ-P1-2] (max 10 µM)	0.0711 GR	0.442 GR	0.153 GR	0.474 GR	0.292 GR	0.149 GR	0.0873 GR	0.131 GR	0.194 GR	0.572 GR	0.344 GR	0.129 GR	0.107 GR
Cc1nc(-c2cn3c(n2)-c2ccc(-c4cnn(C(C)(C)C(N)=O)c4)cc2OCC3)n(C(C)C)n1 [Taselisib/GDC0032] (max 10 µM)	0.693 GR	0.208 GR	0.374 GR	0.798 GR	0.768 GR	0.397 GR	0.598 GR	0.944 GR	0.97 GR	0.278 GR	0.217 GR	0.647 GR	0.439 GR
O=C1NC(=O)[C@@H](c2cn3c4c(cccc24)CCC3)[C@@H]1c1c[nH]c2ccccc12 [Tivantinib/ARQ197] (max 10 µM)	0.667 GR	0.372 GR	0.528 GR	0.457 GR	0.453 GR	0.661 GR	0.278 GR	0.361 GR	0.577 GR	0.373 GR	0.49 GR	0.411 GR	0.648 GR
Nc1ccc(-c2ccc3ncc4ccc(=O)n(-c5cccc(C(F)(F)F)c5)c4c3c2)cn1 [Torin2] (max 1 µM)	0.9 GR	0.441 GR	0.0743 GR	0.346 GR	0.603 GR	0.345 GR	0.487 GR	0.501 GR	0.657 GR	0.362 GR	0.437 GR	0.533 GR	0.339 GR
CC[C@@H]1C(=O)N(C)c2cnc(Nc3ccc(C(=O)N[C@H]4CC[C@H](N5CCN(CC6CC6)CC5)CC4)cc3OC)nc2N1C(C)C [Volasertib/BI6727] (max 1 µM)	0.734 GR	0.759 GR	0.831 GR	0.753 GR	0.605 GR	0.605 GR	0.375 GR	0.741 GR	0.855 GR	0.549 GR	0.928 GR	0.488 GR	0.415 GR
O=C(CCCCCCC(=O)Nc1ccccc1)NO [Vorinostat] (max 10 µM)	0.393 GR	0.099 GR	0.545 GR	0.276 GR	0.349 GR	0.153 GR	0.163 GR	0.162 GR	0.327 GR	0.211 GR	0.217 GR	0.0969 GR	0.153 GR
C=CC(=O)Nc1ccc(C(=O)Nc2[nH]nc3c2CN(C(=O)N[C@H](CN(C)C)c2ccccc2)C3(C)C)cc1 [YKL-5-124] (max 10 µM)	1.02 GR	0.874 GR	0.849 GR	0.831 GR	0.806 GR	0.744 GR	0.736 GR	0.8 GR	1 GR	0.993 GR	1.11 GR	0.564 GR	0.889 GR
CN1CCN(C(=O)c2ccc3cc(CCNc4ncnc5ccc(C#N)cc45)ccc3c2)CC1 [senexin b] (max 10 µM)	0.421 GR	0.264 GR	-0.125 GR	0.274 GR	0.249 GR	0.21 GR	0.158 GR	0.219 GR	0.111 GR	0.125 GR	0.28 GR	0.141 GR	0.177 GR
